Patent publication US20120016009A1, “Optimized Methods For Delivery Of DSRNA Targeting The PCSK9 Gene” (priority 2008, published 2012)
In the oligonucleotide strings, read from the 5' end, every base follows the letter of its sugar. An asterisk marks phosphorothioate; unmarked linkages are phosphodiester. Other units and linkages are bracketed, terminal groups are in braces. A string of capitals states the bases alone. d = 2'-deoxy (DNA); m = 2'-O-methyl; r = 2'-OH (RNA)

System: PCSK9 mRNA
Assay: PCSK9 siRNA screening in HepG2 cells (lipofectamine 2000 transfection, PCSK9 mRNA by Quantigene, normalized to GAP-DH)
Type: cell-based, human
Conditions: for Mean percent remaining mRNA transcript at siRNA concentration/in cell type 3 nM/HepG2: 3 nM siRNA; for Mean percent remaining mRNA transcript at siRNA concentration/in cell type 30 nM/HepG2: 30 nM siRNA; for Mean percent remaining mRNA transcript at siRNA concentration/in cell type 100 nM/HepG2: 100 nM siRNA
In short: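 PCSK9 silencing was assessed in HepG2 cells by lipofectamine 2000 siRNA transfection in 96-well plates. Twenty-four hours later, lysates were analyzed with the Quantigene Explore Kit, with PCSK9 signal normalized to GAP-DH. Eight datapoints were collected per siRNA, and remaining transcript was expressed as a percentage of cells treated with an unrelated control siRNA duplex.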

Substance	Mean percent remaining mRNA transcript at siRNA concentration/in cell type 30 nM/HepG2	further results
AD-9760: PCSK9 siRNA (sense mCmUmCmUrGmUmUrGmCmCmUmUmUmUmUrAmCrArGdT*dT; antisense rCrUrGmUrArArArArArGrGmCrArAmCrArGrArGdT*dT)	14%	Mean percent remaining mRNA transcript at siRNA concentration/in cell type 3 nM/HepG2: 27%
AD-9753: PCSK9 siRNA (sense rArGrArGrAmCmUrGrAmUmCmCrAmCmUmUmCmUmCdT*dT; antisense rGrArGrArArGrUrGrGrArUmCrArGrUrCrUrCrUdT*dT)	127%	
AD-9666: PCSK9 siRNA (sense rArGrArGmUrGrAmCmCrAmCmCrGrGrGrArArAmUdT*dT; antisense rArUrUrUrCrCrCrGrGrUrGrGrUmCrArCrUrCrUdT*dT)	81%	
AD-9527: PCSK9 siRNA (sense rGrCrCrArArCrCrCrGrCrUrCrCrArCrUrArCrCdT*dT; antisense rGrGrUrArGrUrGrGrArGrCrGrGrGrUrUrGrGrCdT*dT)	45%	
AD-9708: PCSK9 siRNA (sense mCmCrArGmCrAmUmCmCrAmCrGmCmUmUmCmCmUrGdT*dT; antisense mCrArGrGrArArGrCrGrUrGrGrArUrGrCrUrGrGdT*dT)	81%	
AD-9630: PCSK9 siRNA (sense rGrGrGrCrArGrGrGrUrCrArUrGrGrUrCrArCrCdT*dT; antisense rGrGrUrGrArCrCrArUrGrArCrCrCrUrGrCrCrCdT*dT)	82%	
AD-9584: PCSK9 siRNA (sense rCrCrCrUrGrGrCrGrGrGrUrGrGrGrUrArCrArGdT*dT; antisense rCrUrGrUrArCrCrCrArCrCrCrGrCrCrArGrGrGdT*dT)	68%	Mean percent remaining mRNA transcript at siRNA concentration/in cell type 100 nM/HepG2: 52%
AD-9588: PCSK9 siRNA (sense rGrGrUrCrArCrCrGrCrUrGrCrCrGrGrCrArArCdT*dT; antisense rGrUrUrGrCrCrGrGrCrArGrCrGrGrUrGrArCrCdT*dT)	66%	
AD-9645: PCSK9 siRNA (sense mCmCmCrArGmCmCrArGrGrAmUmUmCmCrGmCrGmCdT*dT; antisense rGrCrGrCrGrGrArArUrCrCrUrGrGrCrUrGrGrGdT*dT)	66%	
AD-9617: PCSK9 siRNA (sense rArUrGrCrUrGrUrCrUrGrCrCrGrArGrCrCrGrGdT*dT; antisense rCrCrGrGrCrUrCrGrGrCrArGrArCrArGrCrArUdT*dT)	111%	
AD-9551: PCSK9 siRNA (sense UGGCGGGUGGGUACAGCCGTsT; antisense CGGCUGUACCCACCCGCCATsT; as printed in the source, key not given here)	91%	
AD-9697: PCSK9 siRNA (sense rGmCmCrArGrGmUrGmCmUrGmCmCmUrGmCmUrAmCdT*dT; antisense rGmUrArGmCrArGrGmCrArGmCrArCrCrUrGrGrCdT*dT)	74%	Mean percent remaining mRNA transcript at siRNA concentration/in cell type 3 nM/HepG2: 89%
AD-9732: PCSK9 siRNA (sense mUmCrGmUrGmCmUrGrGmUmCrAmCmCrGmCmUrGmCdT*dT; antisense rGmCrArGrCrGrGrUrGrArCmCrArGmCrArCrGrAdT*dT)	105%	
AD-9648: PCSK9 siRNA (sense rArArGrGrArGmCrAmUrGrGrArAmUmCmCmCrGrGdT*dT; antisense rCrCrGrGrGrArUrUrCmCrArUrGrCrUrCrCrUrUdT*dT)	78%	
AD-9639: PCSK9 siRNA (sense rGrUrGrCrUrGrArGrGrCrCrArCrGrArGrGrUrCdT*dT; antisense rGrArCrCrUrCrGrUrGrGrCrCrUrCrArGrCrArCdT*dT)	30%	Mean percent remaining mRNA transcript at siRNA concentration/in cell type 3 nM/HepG2: 35%
AD-9540: PCSK9 siRNA (sense rArGrArGrUrGrArCrCrArCrCrGrGrGrArArArUdT*dT; antisense rArUrUrUrCrCrCrGrGrUrGrGrUrCrArCrUrCrUdT*dT)	45%	
AD-9715: PCSK9 siRNA (sense mCrAmCmCrGmCmUrGmCmCrGrGmCrArAmCmUmUmCdT*dT; antisense rGrArArGrUrUrGrCrCrGrGmCrArGrCrGrGrUrGdT*dT)	113%	
AD-9745: PCSK9 siRNA (sense mUmCrArGrGrArGmCmCrGrGrGrAmCrGmUmCrArGdT*dT; antisense rCrUrGrArCrGrUrCrCrCrGrGrCrUrCrCrUrGrAdT*dT)	56%	

Substance	Mean percent remaining mRNA transcript at siRNA concentration/in cell type 30 nM/HepG2	further results
AD-9638: PCSK9 siRNA (sense rCrUrGrGrArGrUrUrUrArUrUrCrGrGrArArArAdT*dT; antisense rUrUrUrUrCrCrGrArArUrArArArCrUrCrCrArGdT*dT)	101%	
AD-9674: PCSK9 siRNA (sense rGmCrArGmUmCrArGrArGmCrGmCrAmCmUrGmCmCdT*dT; antisense rGrGmCrArGrUrGrCrGrCrUrCrUrGrArCrUrGrCdT*dT)	36%	Mean percent remaining mRNA transcript at siRNA concentration/in cell type 3 nM/HepG2: 57%
AD-9660: PCSK9 siRNA (sense rGrGrAmCrGrAmUrGmCmCmUrGmCmCmUmCmUrAmCdT*dT; antisense rGmUrArGrArGrGmCrArGrGmCrArUrCrGrUrCrCdT*dT)	89%	Mean percent remaining mRNA transcript at siRNA concentration/in cell type 3 nM/HepG2: 79%
AD-9615: PCSK9 siRNA (sense rUrUrCrCrGrGrGrArCrGrArUrGrCrCrUrGrCrCdT*dT; antisense rGrGrCrArGrGrCrArUrCrGrUrCrCrCrGrGrArAdT*dT)	116%	
AD-9614: PCSK9 siRNA (sense rGrGrCrArArCrUrUrCrCrGrGrGrArCrGrArUrGdT*dT; antisense rCrArUrCrGrUrCrCrCrGrGrArArGrUrUrGrCrCdT*dT)	100%	
AD-9650: PCSK9 siRNA (sense rGmCmUrGrGmUrGmCmUrArGmCmCmUmUrGmCrGmUdT*dT; antisense rArCrGmCrArArGrGrCmUrArGmCrArCmCrArGrCdT*dT)	91%	Mean percent remaining mRNA transcript at siRNA concentration/in cell type 3 nM/HepG2: 90%
AD-9734: PCSK9 siRNA (sense mUrGmCmUrArGmCmCmUmUrGmCrGmUmUmCmCrGrAdT*dT; antisense rUrCrGrGrArArCrGmCrArArGrGrCmUrArGmCrAdT*dT)	91%	
AD-9618: PCSK9 siRNA (sense rGrArGrCrArUrGrGrArArUrCrCrCrGrGrCrCrCdT*dT; antisense rGrGrGrCrCrGrGrGrArUrUrCrCrArUrGrCrUrCdT*dT)	90%	
AD-9607: PCSK9 siRNA (sense rGrGrArGrCrUrGrGrUrGrCrUrArGrCrCrUrUrGdT*dT; antisense rCrArArGrGrCrUrArGrCrArCrCrArGrCrUrCrCdT*dT)	32%	IC50: 0.2 nM; Mean percent remaining mRNA transcript at siRNA concentration/in cell type 3 nM/HepG2: 28%
AD-9688: PCSK9 siRNA (sense mUmCmUmCmCmUrArGrAmCrAmCmCrArGmCrAmUrAdT*dT; antisense mUrArUrGrCrUrGrGrUrGrUrCmUrArGrGrArGrAdT*dT)	26%	IC50: 4.2 nM; Mean percent remaining mRNA transcript at siRNA concentration/in cell type 3 nM/HepG2: 34%
AD-9712: PCSK9 siRNA (sense rGrAmCrAmUmCrAmUmUrGrGmUrGmCmCmUmCmCrAdT*dT; antisense rUrGrGrArGrGmCrArCmCrArArUrGrArUrGrUrCdT*dT)	107%	
AD-9656: PCSK9 siRNA (sense rAmCmCrGrGrGmCrGrGrAmUrGrArAmUrAmCmCrAdT*dT; antisense rUrGrGmUrArUrUmCrArUrCrCrGrCrCrCrGrGrUdT*dT)	77%	
AD-9530: PCSK9 siRNA (sense rArCrCrGrGrGrCrGrGrArUrGrArArUrArCrCrAdT*dT; antisense rUrGrGrUrArUrUrCrArUrCrCrGrCrCrCrGrGrUdT*dT)	75%	
AD-9560: PCSK9 siRNA (sense rGrArGrUrUrUrArUrUrCrGrGrArArArArGrCrCdT*dT; antisense rGrGrCrUrUrUrUrCrCrGrArArUrArArArCrUrCdT*dT)	97%	
AD-9583: PCSK9 siRNA (sense rCrCrCrArUrGrUrCrGrArCrUrArCrArUrCrGrAdT*dT; antisense rUrCrGrArUrGrUrArGrUrCrGrArCrArUrGrGrGdT*dT)	42%	
AD-9557: PCSK9 siRNA (sense rCrCrArCrCrGrGrGrArArArUrCrGrArGrGrGrCdT*dT; antisense rGrCrCrCrUrCrGrArUrUrUrCrCrCrGrGrUrGrGdT*dT)	96%	Mean percent remaining mRNA transcript at siRNA concentration/in cell type 100 nM/HepG2: 75%
AD-9756: PCSK9 siRNA (sense rGrGrGmCrArGrGrGmUmCrAmUrGrGmUmCrAmCmCdT*dT; antisense rGrGrUrGrArCmCrArUrGrArCrCrCrUrGrCrCrCdT*dT)	63%	
AD-9564: PCSK9 siRNA (sense rUrCrArUrUrGrGrUrGrCrCrUrCrCrArGrCrGrAdT*dT; antisense rUrCrGrCrUrGrGrArGrGrCrArCrCrArArUrGrAdT*dT)	120%	
